In patent US9932350B2, “Inhibitors of IRAK4 activity” (MERCK SHARP & DOHME CORP., priority 2014, dated 2018):

Molecular target: GST tagged IRAK4 (Homo sapiens (Human), UniProt Q9NWZ3)
Assay: IRAK4 Kinase Assay (IMAP fluorescence polarization)
Type: biochemical
Conditions: 0.5 nM GST tagged IRAK4, 100 μM ATP, 30 minutes at 25° C.
How it was run: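 GST-tagged IRAK4 (0.5 nM) phosphorylates 100 nM fluorescent peptide with 100 μM ATP in 10 mM Tris pH 7.2, 1 mM MgCl2, 1 mM DTT, 0.01% Tween 20 for 30 min at 25 °C. Phosphorylation read as IMAP nanoparticle-binding fluorescence polarization after stop reagent.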

GST tagged IRAK4, sequence (Q9NWZ3 whole entry): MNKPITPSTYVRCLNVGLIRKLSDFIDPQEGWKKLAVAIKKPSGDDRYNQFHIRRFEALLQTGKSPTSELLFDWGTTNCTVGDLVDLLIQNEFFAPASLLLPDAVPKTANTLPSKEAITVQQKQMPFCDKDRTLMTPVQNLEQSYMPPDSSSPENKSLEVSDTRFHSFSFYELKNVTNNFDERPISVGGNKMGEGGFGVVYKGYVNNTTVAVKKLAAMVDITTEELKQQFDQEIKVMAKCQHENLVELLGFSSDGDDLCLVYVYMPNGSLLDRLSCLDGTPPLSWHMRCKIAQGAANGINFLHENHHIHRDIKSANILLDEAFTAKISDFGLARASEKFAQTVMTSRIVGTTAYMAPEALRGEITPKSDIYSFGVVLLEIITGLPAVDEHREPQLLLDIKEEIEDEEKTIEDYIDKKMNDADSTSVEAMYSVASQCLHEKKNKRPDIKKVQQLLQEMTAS

IC50: 26 nM
SMILES: N#Cc1ccc2ncnc(N[C@H]3CC[C@H](NC4CC4)CC3)c2c1 [Example 3-23, 4-{[trans-4-(cyclopropylamino)cyclo-hexyl]amino}quinazoline-6-carbonitrile]
